Data published in patent US10085966B2, “Compositions and methods for skin care” (Antipodean Pharmaceuticals, Inc., priority 2008, dated 2018).

Experiments:
Assay type in all cases: cell-based
ERK MAP kinase = assay: UV irradiation-induced activation of ERK MAP kinase in cultured human keratinocytes; settings: pretreatment of keratinocytes with the indicated concentrations (FIG. 4)
From the text: (§1) Ultraviolet (UV) irradiation causes skin photoaging and has been reported to activate mitogen-activated protein (MAP) kinase signal transduction pathways. (Fisher et al., 1998 J. Clin. Invest. 101:1432; Kang et al., 2003 J. Invest. Dermatol. 120:835). The mechanism of UV activation of the epidermal growth factor receptor (EGFR) in such pathways remains unknown, although a role for ROS has been implicated (Xu et al., 2006 Am. J. Pathol. 169:823; Xu et al., 2006 J. Biol. Chem. 281:27389). This Example describes an in vitro model of UV-induced signal transduction in human keratinocytes. Publications describing exemplary materials and methods that were adapted to perform these experiments include e.g., Pilcher et al., 1997 J. Cell Biol. 137:1445; Notary et al., 2000 J. Cell Biol. 149:1309; Netzel-Arnett et al., 2002 J. Biol. Chem. 277:45154; Fisher et al., 2002 Arch Dermatol. 138:1462; Kang et al., 2003 J. Invest. Dermatol. 120:835; Xu et al., 2006 Am J Pathol. 169:823; Xu et al., 2006 J Biol. Chem 281:27389.
(§2) Exposure of cultured human keratinocytes to UV irradiation activated ERK MAP kinase, as evidenced by elevated levels of phosphorylated ERK polypeptide in immunoprecipitates from UV-irradiated keratinocytes relative to untreated control keratinocytes. (FIG. 4)

ERK1 = assay: UV irradiation-induced ERK1 phosphorylation in cultured human keratinocytes
From the text: as §1, §2

[1] = tested on: matrix metalloproteinase-1 (MMP1); assay: MMP1 expression by human skin fibroblasts in collagenase-fragmented three-dimensional collagen lattices; settings: 1 nM, relative to controls (FIG. 3)
From the text: (§3) In photoaged human skin in vivo, skin wrinkling was accompanied by elevated collagenase levels that stimulated collagen fragmentation and ROS production. This Example describes an in vitro model of skin collagen fragmentation that was created and tested for the effects of antioxidant compounds. Materials and methods for preparing three-dimensional extracellular matrix (ECM) collagen lattices, for culturing skin fibroblasts and keratinocytes thereupon, and for treating such matrices with, and characterizing the effects on them of, matrix metalloproteinases (MMPs) have been described (see, e.g., Pilcher et al., 1997 J. Cell Biol. 137:1445; Notary et al., 2000 J. Cell Biol. 149:1309; Netzel-Arnett et al., 2002 J. Biol. Chem. 277:45154; Fisher et al., 2002 Arch Dermatol. 138:1462; Kang et al., 2003 J. Invest. Dermatol. 120:835; Xu et al., 2006 Am J Pathol. 169:823; Xu et al., 2006 J Biol. Chem 281:27389).
(§4) Human skin fibroblasts were cultured in three-dimensional collagen lattices, which mimicked the dermal extracellular matrix. In intact collagen lattices, dermal fibroblasts spread by attachment to the collagen, and produced relatively low levels of the collagenase known as matrix metalloproteinase-1 (MMP1). […]

human skin fibroblasts = assay: ROS production by human skin fibroblasts in collagenase-fragmented three-dimensional collagen lattices; settings: 1 nM, relative to controls (FIG. 2)
From the text: as §3, §4

ERK2 = assay: UV irradiation-induced ERK2 phosphorylation in cultured human keratinocytes
From the text: as §1, §2

[2] = exposure to MitoQ10 (FIG. 4 lower panel)
[3] = incubation of keratinocytes prior to UV irradiation (FIG. 4 upper panel)

In the case of `COC1=C(OC)C(=O)C(CCCCCCCCCC[P+](c2ccccc2)(c2ccccc2)c2ccccc2)=C(C)C1=O.CS(=O)(=O)[O-]` [MitoQ10 mesylate, [10-(4,5-dimethoxy-2-methyl-3,6-dioxo-1,4-cyclohexadien-1-yl)decyl] triphenylphosphonium methanesulfonate], the “activation of ERK MAP kinase by subsequent UV irradiation” value (ERK MAP kinase) is reported as “substantially inhibited”, the “amount of Erk1 in the keratinocytes” value (ERK1; [2]) is reported as “not altered” and the ERK1 phosphorylation (ERK1; [3]) is reported as “significantly reduced”. The “matrix metalloproteinase-1 expression, MMP1 mRNA” value [1] was “significantly reduced”, the “matrix metalloproteinase-1 expression, MMP1 protein” value [1] was “significantly reduced” and the “oxidant (ROS) levels” value (human skin fibroblasts) was “significantly reduced”. The “amount of Erk2 in the keratinocytes” value (ERK2; [2]) was “not altered” and the ERK2 phosphorylation (ERK2; [3]) was “significantly reduced”.
